The values below come from publication PMC8317065, “UPLC-MS/MS Method for Analysis of Endocannabinoid and Related Lipid Metabolism in Mouse Mucosal Tissue” (Frontiers in Physiology, 2021).

In assay [1] the test system is human recombinant DGL. On the set-up: method as in Bisogno et al., 2006. The conditions noted are these: ref Bisogno et al., 2006, read-out: IC50 reported for human recombinant DGL; cited from earlier work.
In assay [2] the test system is DGL. Description: DGL activity assay, UPLC-MS/MS, lung protein isolates. The class given is biochemical, mouse. As to conditions: for DAG metabolism (normalized response): lung protein 50 μg. Here is the method: Homogenized samples were centrifuged at 800 × g for 15 m at 4°C. The supernatant was collected in a 2.0 mL centrifuge tube and sonicated twice for 10 s. Samples underwent two sequential freeze thaw cycles using liquid N2. Samples were again centrifuged at 800 × g, 15 min, 4°C and the supernatant was collected. Total protein was then quantified via BCA assay and normalized between all samples. Protein isolations for each assay and each tissue were performed separately.
Substrate solutions were prepared by drying stock 19:2 DAG (20 nmol/reaction) under N2 steam (99.998% pure) and reconstituted in a solution of 50 mM Tris–HCl with 0.2% Triton x-100 (pH = 7.0). This solution was bath sonicated for 60 min at room temperature while protein samples were prepared. […] In addition, the ABHD6 inhibitor, WWL 70 (10 μM), was added to lung protein isolates for the 10-minute room temperature incubation to ensure the product of interest was not metabolized ([Tchantchou and Zhang, 2013]). Dose-inhibition experiments included addition of the DGL inhibitor, THL [albeit not selective for DGL, see [Hoover et al. (2008)]; [DiPatrizio et al. (2015)]]. […] The products of the reaction were extracted via lipid extraction methods (see section “Lipid Extraction for Enzyme Assays”) and quantified via UPLC-MS/MS (see section “Quantitation of MAG Biosynthetic Enzyme Activity Assay Products”).
Lipids were extracted using liquid-liquid extraction with chloroform (2.0 mL) followed by 0.8 mL 0.2-micron ultra-purified water. […] Products were detected and quantified via UPLC-MS/MS techniques (see section “UPLC-MS/MS Detection of Analytes”).
Analytes were eluted at a flow rate of 0.4 mL/min and gradient: 80% methanol 0.0–0.5 min, 80–100% methanol 0.5–2.5 min, 100% methanol 2.5–3.0 min, 100–80% methanol 3.0–3.1 min, and 80% methanol 3.1–4.5 min. […] Lipids were quantified using a stable isotope serial dilution method detecting H^+ or Na^+ adducts of the molecular ions [M + H/Na]^+ in multiple reactions monitoring (MRM) mode (variable amounts of product 19:2 MAG versus fixed amount of internal standard [^2H5]-2-AG). […]

For orientation: IC50 means the concentration at which inhibition is half-maximal. With `CCCCCCCCCCC[C@@H](C[C@@H]1OC(=O)[C@H]1CCCCCC)OC(=O)[C@H](CC(C)C)NC=O` [THL, tetrahydrolipstatin], the IC50 was 60 nM in assay [1] and 74.6 nM in assay [2] (mouse lung protein isolates 50 μg, THL 3-1,000 nM, read-out: IC50, inhibition of DAG metabolism (DGL activity)). Further, the results for the “DAG metabolism (normalized response)” value in assay [2] (highest inhibitor concentration of range (1,000 nM)) and in assay [2] (lowest inhibitor concentration of range (3 nM)) were 10.19 ± 0.29% and 90.26 ± 9.07%, respectively.
